Measured values published in PMC3530156 (Chemistry & biology, 2012).

Columns and labels:
[1] = system: B. subtilis BSZ-9 (L11 knockout); details: colonies of M1152 + pSETGE1 overlaid with B. subtilis BSZ-9, resistant to 26-membered thiopeptides
[2] = system: Bacillus subtilis PY79; assay: MIC, overnight culture/serial dilution assay; format: cell-based; details: overnight serial dilution culture, purified compound

**Q.** What does the source list for GE37468?
**A.** resistance of overlaid strain [1]: Neither BSZ-9 nor B. cereus ATCC 15479 exhibited resistance; MIC B. subtilis [2]: 0.016 µg/mL
